What was measured:
[1] = mouse, in vivo
[2] = mouse, in vivo; remark: listed apart in the source
[3] = design: species or system domestic cat; conditions: in vivo; for Equivalent dose (ED50), preventing motion sickness-like syndrome in cats: cat, po
[4] = design: species or system Japanese white rabbit; conditions: rabbit, in vivo; for Equivalent dose (ED50), preventing adversive circling syndrome in rabbits: po
[5] = mouse, in vivo; remark: listed apart in the source
[6] = design: species or system human (volunteers); conditions: in vivo
[7] = design: species or system human (sailor volunteers); conditions: in vivo, po
[8] = design: species or system human; conditions: in vivo
[9] = design: species or system human (volunteers); conditions: in vivo; remark: listed apart in the source
[10] = in vivo
[11] = design: species or system human (medical worker volunteers); conditions: in vivo, po

CN1[C@@H]2C[C@@H](OC(=O)[C@H](CO)c3ccccc3)C[C@H]1[C@@H]1O[C@@H]12 [Scopolamine]
B/A (ratio of ED50), inhibiting salivary secretion in mice [1]: 0.13 | B/A (ratio of ED50), potentiating sodium pentobarbital in mice [2]: 0.24 | Equivalent dose (ED50), preventing motion sickness-like syndrome in cats [3]: 0.059 mg/kg | B/A (ratio of ED50 of scopolamine to that of the composition), motion sickness-like syndrome in cats [3]: 0.30 | B/A (ratio of ED50 of scopolamine to that of the composition), adversive circling in rabbits [4]: 0.30 | Equivalent dose (ED50), preventing adversive circling syndrome in rabbits [4]: 0.129 mg/kg | B/A (ratio of ED50), mydriatic effect in mice [5]: 0.072

OC(CCCN1CCCCC1)(c1ccccc1)c1ccccc1 [Diphenidol]
Effect on changes of electronystagmogram [6]: obvious efficacy | Nystagmus after rotation, postmedication ([6]; po): 11.2 ± 6.2 degree/s | Nystagmus during rotation, postmedication ([6]; po): 6.9 ± 3.4 degree/s | Ineffective rate, Ship [7]: 10.0% | Significantly effective rate, Ship [7]: 66.7% | Total effective rate, Ship [7]: 76.7% | C/A (ratio of ED50), inhibiting salivary secretion in mice [1]: 13.6 | Total effective, significantly effective and ineffective rates compared with placebo [8]: significantly different from those of the placebo group | C/A (ratio of ED50), potentiating sodium pentobarbital in mice [2]: 6.9 | Effect on changes of electrogastrogram of body of stomach and gastric antrum [9]: obvious efficacy | Amplitude of electrogastrogram of antrum of stomach, postmedication ([9]; po): 414 ± 265 μV | Amplitude of electrogastrogram of body of stomach, postmedication ([9]; po): 396 ± 227 μV | Equivalent dose (ED50), preventing motion sickness-like syndrome in cats [3]: 20.18 mg/kg | C/A (ratio of ED50 of diphenidol to that of the composition), motion sickness-like syndrome in cats [3]: 91.3 | C/A (ratio of ED50 of diphenidol to that of the composition), adversive circling in rabbits [4]: > 115 | Equivalent dose (ED50), preventing adversive circling syndrome in rabbits [4]: > 50 mg/kg | C/A (ratio of ED50), mydriatic effect in mice [5]: 10.5 | Incidence of somnolence [10]: 18.7% | Ineffective rate, Bus [11]: 18.2% | Significantly effective rate, Bus [11]: 49.1% | Total effective rate, Bus [11]: 63.6%

Reference: patent US6028198A (priority 1993, dated 2000)
